Values of other authors as cited in US8956592B2, “Oral care compositions” (Colgate-Palmolive Company, priority 2010, dated 2015).

Tested on: S. mutans, F. nucleatum, V. parvula, A. naslundii, P. gingivitis
Settings: in vitro tests

Row | SMILES | bactericidal properties against representative oral bacteria
1 | C=CCc1ccc(O)c(-c2ccc(O)c(CC=C)c2)c1 [honokiol] | bactericidal properties
2 | C=CCc1ccc(O)c(-c2cc(CC=C)ccc2O)c1 [magnolol] | bactericidal properties
3 | CCCc1ccc(O)c(-c2ccc(O)c(CCC)c2)c1 [tetrahydrohonokiol, 3′,5-dipropylbiphenyl-2,4′-diol] | bactericidal properties
4 | CCCc1ccc(O)c(-c2cc(CCC)ccc2O)c1 [tetrahydromagnolol, 5,5′-dipropylbiphenyl-2,2′-diol] | bactericidal properties
